Source: patent US9540299B2, “MTOR-independent activator of TFEB for autophagy enhancement and uses thereof” (Hong Kong Baptist University, priority 2015, dated 2017)

Each molecule was assayed against T1, 3×Flag-TFEB (Homo sapiens, UniProt P19484) (assay: Nuclear translocation of Flag-TFEB in Hela cells stably expressing 3×Flag-TFEB (immunostaining, western blot)). Settings: analogs 1 μM, curcumin 10 μM, 12 h, Torin 1 1 μM, 2 h.
T1 construct: expressed in transfected cells
T1 sequence (P19484 1-476): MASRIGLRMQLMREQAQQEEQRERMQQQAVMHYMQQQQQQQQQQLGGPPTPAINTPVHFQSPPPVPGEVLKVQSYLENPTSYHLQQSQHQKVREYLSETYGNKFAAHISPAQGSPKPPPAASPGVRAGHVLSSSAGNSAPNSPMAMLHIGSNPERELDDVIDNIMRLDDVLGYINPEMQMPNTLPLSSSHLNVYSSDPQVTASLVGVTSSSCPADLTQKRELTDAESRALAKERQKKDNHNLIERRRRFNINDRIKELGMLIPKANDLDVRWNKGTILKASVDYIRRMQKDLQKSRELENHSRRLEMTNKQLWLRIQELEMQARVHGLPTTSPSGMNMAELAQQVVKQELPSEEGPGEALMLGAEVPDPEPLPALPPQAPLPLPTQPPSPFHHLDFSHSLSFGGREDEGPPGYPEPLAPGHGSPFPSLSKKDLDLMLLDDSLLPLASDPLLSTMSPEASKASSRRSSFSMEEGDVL
Assay type: cell-based
Experimental: Cells were treated with curcumin (Cur, 10 μM), A2, B3 and C1 (1 μM) for 12 h. […] Data is quantified by ImageJ software and is presented as mean±SD of three replicates for each treatment conditions. At least 1000 cells are analyzed in each treatment group. *p<0.05 vs. the control (0.1% DMSO). FIG. 4C is a western blot showing the expression of endogenous TFEB. […] Data are presented as the mean±SD from three independent experiments. *p<0.05 vs. the control (0.1% DMSO). FIG. 4E is fluorescence images showing expression of 3×Flag-TFEB in Hela cells having treated with Cur (10 μM), A2, B3 and C1 (1 μM) for 12 h. Torin 1 (1 μM) treatment for 2 h is used as a positive control. Cells were fixed and stained with anti-Flag antibody. […] FIG. 4G is the western blot showing the expression of Flag-tagged TFEB in the cytosolic (Cyt.) and nuclear (Nuc.) fractions. ACTB and H3F3A (H3 histone, family 3A) are used as loading control of cytoplasmic and nuclear fraction, respectively. FIG. 4H is showing the relative intensity of TFEB in the cytosolic and nuclear fractions. Data are presented as the mean±SD from three independent experiments. *p<0.05 vs. the control (0.1% DMSO).
HeLa cells stably expressing 3×Flag-TFEB are treated with curcumin analogs E2, E3 and E4 (1 μM) for 12 hours. Torin 1 (1 μM) treatment for 2 hours is used as a positive control. Cells are fixed and stained with anti-Flag antibody (red) and DAPI (blue) (FIG. 18A). TFEB translocate into nucleus are quantified (FIG. 18B). Quantification data are presented as mean±SD of three replicates in a representative experiment. At least 500 cells are analyzed in each treatment group.
HeLa cells stably expressing 3×Flag-TFEB are treated with curcumin analogs E2, E3 and E4 (1 μM) for 12 hours. Torin 1 (1 μM) treatment for 2 hours is used as a positive control. The expression of TFEB in the cytosolic (Cyt.) and nuclear (Nuc.) fractions are determined by western blotting (FIG. 19A) and quantified (FIG. 19B). TUBB (β-tubulin) and H3F3A (H3 histone, family 3A) are used as loading control of cytoplasmic and nuclear fraction respectively. Quantification data are presented as the mean±SD from three independent experiments. *p<0.05 vs. the control (0.1% DMSO).
N2a, Hela and Hela cells stably expressing 3×-Flag-TFEB are cultured in DMEM supplemented with 10% FBS. SH-SY5Y cells are cultured in DMEM/F12 supplemented with 10% FBS. For drug treatment, the full medium is replaced by fresh Opti-MEM I and then the compounds (in 0.1% DMSO) are added to the cells and incubated for 12 h. Inducible PC12 cells overexpressing SNCA (WT and A53T) (a kind gift from Prof. David C. Rubinsztein at Cambridge University) are grown in DMEM supplemented with 10% horse serum, 5% FBS, 50 μg/ml G418, and 150 μg/ml hygromycin B at 37° C., 10% CO2. Cells are treated with 2 μg/ml doxycycline (Dox) for 24 h to induce SNCA expression. The full medium is changed to Opti-MEM I containing the testing compounds for another 48 h.
Cells are lysed on ice in 1× Lysis Buffer (9803, Life Technologies) with complete protease inhibitor mixture (04693124001, Roche Applied Science). Animal tissues are homogenized in nine volumes of ice-cold PBS supplemented with protease inhibitors. Cytosolic and nuclear fractions are isolated using protocols similar to those described previously. Anti-Flag or TFEB antibody is added to the whole cell lysates and Dynabeads® Protein G (10003D, Life Technologies) is used for immunoprecipitation. Proteins are separated by 10-15% SDS-PAGE, transferred, and blotted with the antibodies described. The blots are then incubated with secondary antibodies or the Clean-Blot IP Detection Reagent (21230, Thermo Scientific) at room temperature for 1 h. The protein signals are detected by ECL kit (32106, Pierce) and quantified using ImageJ software.
Cells are seeded on coverslips placed in 24-well plates. […]
In the case of `O=C(/C=C/c1ccccc1I)/C=C/c1ccccc1I` [E4], the “nuclear translocation of Flag-TFEB” value is reported as “significantly promote”.
`O=C(/C=C/c1ccccc1Br)/C=C/c1ccccc1Br` [E3] was tested, and the “nuclear translocation of Flag-TFEB” value was “significantly promote”.
For `COc1cc(/C=C/C(=O)CC(=O)/C=C/c2ccc(O)c(OC)c2)ccc1O` [curcumin, Curcumin, reference compound], the “nuclear translocation of Flag-TFEB” value was “no effects”.
In the case of `O=C(/C=C/c1ccc(O)cc1)/C=C/c1ccc(O)cc1` [B3, 1,5-bis(4-hydroxyphenyl)penta-1,4-dien-3-one], the “nuclear translocation of Flag-TFEB” value is reported as “no effects”.
For `O=C(/C=C/c1cccc(C(F)(F)F)c1)/C=C/c1cccc(C(F)(F)F)c1` [A2, 1,5-bis(3-(trifluoromethyl)phenyl)penta-1,4-dien-3-one], the “nuclear translocation of Flag-TFEB” value was “no effects”.
In the case of `COc1ccccc1/C=C/C(=O)/C=C/c1ccccc1OC` [C1, 1,5-bis(2-methoxyphenyl)penta-1,4-dien-3-one], the “nuclear translocation of Flag-TFEB” value is reported as “significantly promotes”.
`O=C(/C=C/c1ccccc1Cl)/C=C/c1ccccc1Cl` [E2] was tested, and the “nuclear translocation of Flag-TFEB” value was “significantly promote”.
